The record followed here is patent US20100222434A1, “PHARMACEUTICAL COMPOSITION FOR […]-BETA PROTEIN ACCUMULATION” (Sumitomo Chemical Company, Limited, priority 2007, published 2010).

The assay concerns Aβ accumulation in cultured nerve cells (CHP212 cells). The assay is described as follows: Measurement of fluctuation in the amount of Aβ accumulation in cultured nerve cells. It is filed as cell-based. The settings on record: human neuroblastoma CHP212 cells; Aβ in the medium by ELISA (Amyloid β1-42 kit) 48 hours after addition of test substance; 10^−11 M to 10^−6 M; versus DMSO control (100%). The source says:
FIG. 1 is a diagram showing results of measuring fluctuation caused by a test substance of the formula (II) in the amount of Aβ accumulation in cultured nerve cells (CHP212 cells).
In the diagram, each column represents, starting from the left, a result of measurement obtained in a control well to which only a solvent (DMSO) has been added, in a well to which the test substance has been added so that its final concentration can be 10^−11 M (10^−11 M), in a well to which the test substance has been added so that its final concentration can be 10^−10 M (10^−10 M), in a well to which the test substance A has been added so that its final concentration can be 10^−9 M (10^−9 M), in a well to which the test substance has been added so that its final concentration can be 10^−8 M (10^−8 M), in a well to which the test substance has been added so that its final concentration can be 10^−7 M (10^−7 M), and in a well to which the test substance has been added so that its final concentration can be 10^−6 M (10^−6 M). The results are shown in % by setting a result obtained in a control well to which only a solvent (DMSO) has been added as 100%. […]
In general terms: In an ELISA, binding on a coated surface is turned into a signal by an enzyme label.

Each structure is given as a SMILES string.

Take `CCCN(CC1CC1)c1ccc(C#N)c(C(F)(F)F)c1` [formula (II)]: the “amount of Aβ accumulation” value is given as “markedly decreased”.
